Laboratory results reported in patent publication US11623919B2, “Heterocyclic P2X7 antagonists” (AXXAM S.P.A., priority 2017, dated 2023).

Assays:
Assay in all cases: Screen Quest Fluo-8 No Wash Calcium Assay (Bz-ATP evoked Ca2+ influx, FLIPR)
Format in all cases: cell-based
P2X7 receptor [1] = molecular target: T1, P2X7 receptor (Mus musculus, UniProt Q9Z1M0); settings: mP2X7; HEK-293 cells stably transfected with P2X7 receptor, Bz-ATP at EC80, Fluo-8 NW; potency ranges A-D
T1 construct: mP2X7 (IC50; nM); other: mP2X7; HEK-293 cells stably transfected with P2X7 receptor, Bz-ATP at EC80, Fluo-8 NW; potency
T1 sequence (Q9Z1M0 1-595): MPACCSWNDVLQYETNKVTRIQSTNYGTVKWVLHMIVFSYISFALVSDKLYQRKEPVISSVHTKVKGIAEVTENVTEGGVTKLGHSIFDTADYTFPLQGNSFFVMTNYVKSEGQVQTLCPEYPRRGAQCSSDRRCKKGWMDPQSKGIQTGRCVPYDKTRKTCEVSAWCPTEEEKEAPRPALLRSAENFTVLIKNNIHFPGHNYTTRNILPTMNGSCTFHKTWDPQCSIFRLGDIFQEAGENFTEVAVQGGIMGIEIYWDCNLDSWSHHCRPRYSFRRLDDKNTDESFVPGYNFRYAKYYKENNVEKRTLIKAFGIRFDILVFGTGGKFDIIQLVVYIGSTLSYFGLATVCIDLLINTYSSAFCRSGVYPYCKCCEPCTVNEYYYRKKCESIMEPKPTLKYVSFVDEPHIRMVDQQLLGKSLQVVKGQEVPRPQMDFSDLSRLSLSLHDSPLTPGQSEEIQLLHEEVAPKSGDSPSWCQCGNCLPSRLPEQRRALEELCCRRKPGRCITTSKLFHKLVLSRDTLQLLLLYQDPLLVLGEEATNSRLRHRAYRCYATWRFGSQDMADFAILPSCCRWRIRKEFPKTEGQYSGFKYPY
Summary of the method: (§1)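 Compounds were added to Fluo-8-loaded P2X7-transfected HEK-293 cells 5 min before an EC80 Bz-ATP challenge, and Ca2+ influx was then recorded for 3 min. Buffer held 0.3 mM Ca2+ and no Mg2+. Inhibition was normalised to A438079, giving IC50 values.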

P2X7 receptor [2] = molecular target: T2, P2X7 receptor (Rattus norvegicus, UniProt Q64663); settings: rP2X7; HEK-293 cells stably transfected with P2X7 receptor, Bz-ATP at EC80, Fluo-8 NW; potency ranges A-D
T2 construct: rP2X7 (IC50; nM); other: rP2X7; HEK-293 cells stably transfected with P2X7 receptor, Bz-ATP at EC80, Fluo-8 NW; potency
T2 sequence (Q64663 1-595): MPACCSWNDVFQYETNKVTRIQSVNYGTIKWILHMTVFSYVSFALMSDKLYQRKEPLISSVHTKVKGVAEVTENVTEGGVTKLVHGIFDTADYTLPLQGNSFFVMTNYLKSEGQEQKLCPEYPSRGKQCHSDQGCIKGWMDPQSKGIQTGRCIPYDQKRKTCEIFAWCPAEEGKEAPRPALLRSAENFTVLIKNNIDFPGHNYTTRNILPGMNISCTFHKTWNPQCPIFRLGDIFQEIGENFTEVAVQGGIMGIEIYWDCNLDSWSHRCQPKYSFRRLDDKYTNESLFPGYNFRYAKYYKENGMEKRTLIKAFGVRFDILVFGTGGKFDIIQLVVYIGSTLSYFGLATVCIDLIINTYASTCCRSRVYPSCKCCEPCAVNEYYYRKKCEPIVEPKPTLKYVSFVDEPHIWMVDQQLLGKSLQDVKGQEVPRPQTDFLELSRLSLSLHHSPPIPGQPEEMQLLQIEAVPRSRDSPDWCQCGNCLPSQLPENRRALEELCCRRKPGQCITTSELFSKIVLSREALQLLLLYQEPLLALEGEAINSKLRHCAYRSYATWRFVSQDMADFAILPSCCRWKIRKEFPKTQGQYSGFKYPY
Summary of the method: as §1

P2X7 receptor [3] = molecular target: T3, P2X7 receptor (Homo sapiens, UniProt Q99572); set-up: hP2X7 (IC50; nM); other: hP2X7; HEK-293 cells stably transfected with P2X7 receptor, Bz-ATP at EC80, Fluo-8 NW; potency; settings: hP2X7; HEK-293 cells stably transfected with P2X7 receptor, Bz-ATP at EC80, Fluo-8 NW; potency ranges A-D
T3 sequence (Q99572 1-595): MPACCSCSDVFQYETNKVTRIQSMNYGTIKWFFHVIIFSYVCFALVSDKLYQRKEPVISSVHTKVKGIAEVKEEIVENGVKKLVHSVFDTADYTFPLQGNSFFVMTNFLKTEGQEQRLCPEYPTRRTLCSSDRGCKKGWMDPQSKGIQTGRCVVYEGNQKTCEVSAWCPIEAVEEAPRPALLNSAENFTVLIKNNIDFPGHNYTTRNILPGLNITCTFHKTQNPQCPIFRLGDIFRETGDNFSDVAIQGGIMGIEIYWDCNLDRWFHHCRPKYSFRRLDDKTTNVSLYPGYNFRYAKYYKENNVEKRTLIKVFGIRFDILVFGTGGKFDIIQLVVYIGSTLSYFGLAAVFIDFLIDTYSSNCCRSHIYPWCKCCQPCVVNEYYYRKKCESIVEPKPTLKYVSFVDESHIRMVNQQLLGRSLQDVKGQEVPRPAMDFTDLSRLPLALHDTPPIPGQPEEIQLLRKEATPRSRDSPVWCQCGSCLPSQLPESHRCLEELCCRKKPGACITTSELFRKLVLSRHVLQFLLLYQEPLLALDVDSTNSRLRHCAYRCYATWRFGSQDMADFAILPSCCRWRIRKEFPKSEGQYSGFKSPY
Summary of the method: as §1

## Cc1ncccc1Cc1noc(=O)n1CC1CCCCC1 [Example 218, 4-(cyclohexylmethyl)-3-[(2-methylpyridin-3-yl)methyl]-4,5-dihydro-1,2,4-oxadiazol-5-one]
P2X7 receptor [1]
  IC50: 1000 to 10000 nM
P2X7 receptor [2]
  IC50: 200 to 1000 nM
P2X7 receptor [3]
  IC50: 200 to 1000 nM

## Cc1ncccc1Cc1noc(=O)n1CC1CCC(F)(F)CC1 [Example 219, 4-[(4,4-difluorocyclohexyl)methyl]-3-[(2-methylpyridin-3-yl)methyl]-4,5-dihydro-1,2,4-oxadiazol-5-one]
P2X7 receptor [1]
  IC50: 1000 to 10000 nM
P2X7 receptor [2]
  IC50: 1000 to 10000 nM
P2X7 receptor [3]
  IC50: 200 to 1000 nM

## O=c1onc(CN2CCC(F)(F)CC2)n1Cc1c(F)cccc1Cl [Example 220, 4-[(2-chloro-6-fluorophenyl)methyl]-3-[(4,4-difluoropiperidin-1-yl)methyl]-4,5-dihydro-1,2,4-oxadiazol-5-one]
P2X7 receptor [1]
  IC50: 200 to 1000 nM
P2X7 receptor [2]
  IC50: < 200 nM
P2X7 receptor [3]
  IC50: < 200 nM

## O=c1onc(CN2CCC(F)(F)CC2)n1Cc1ccc(F)cc1 [Example 221, 3-[(4,4-difluoropiperidin-1-yl)methyl]-4-[(4-fluorophenyl)methyl]-4,5-dihydro-1,2,4-oxadiazol-5-one]
P2X7 receptor [1]
  IC50: 1000 to 10000 nM
P2X7 receptor [2]
  IC50: 1000 to 10000 nM
P2X7 receptor [3]
  IC50: > 10000 nM

## O=c1onc(CN2CCC(F)(F)CC2)n1CC1CCCCC1 [Example 222, 4-(cyclohexylmethyl)-3-[(4,4-difluoropiperidin-1-yl)methyl]-4,5-dihydro-1,2,4-oxadiazol-5-one]
P2X7 receptor [1]
  IC50: 1000 to 10000 nM
P2X7 receptor [2]
  IC50: 1000 to 10000 nM
P2X7 receptor [3]
  IC50: > 10000 nM

## O=c1onc(CN2CCC(F)(F)CC2)n1CC1CCC(F)(F)CC1 [Example 223, 4-[(4,4-difluorocyclohexyl)methyl]-3-[(4,4-difluoropiperidin-1-yl)methyl]-4,5-dihydro-1,2,4-oxadiazol-5-one]
P2X7 receptor [1]
  IC50: > 10000 nM
P2X7 receptor [2]
  IC50: > 10000 nM
P2X7 receptor [3]
  IC50: > 10000 nM

## O=c1onc(CN2CCCC(F)(F)C2)n1Cc1c(F)cccc1Cl [Example 224, 4-[(2-chloro-6-fluorophenyl)methyl]-3-[(3,3-difluoropiperidin-1-yl)methyl]-4,5-dihydro-1,2,4-oxadiazol-5-one]
P2X7 receptor [1]
  IC50: 200 to 1000 nM
P2X7 receptor [2]
  IC50: 200 to 1000 nM
P2X7 receptor [3]
  IC50: 200 to 1000 nM

## O=c1onc(CN2CCCC(F)(F)C2)n1Cc1ccc(F)cc1 [Example 225, 3-[(3,3-difluoropiperidin-1-yl)methyl]-4-[(4-fluorophenyl)methyl]-4,5-dihydro-1,2,4-oxadiazol-5-one]
P2X7 receptor [1]
  IC50: > 10000 nM
P2X7 receptor [2]
  IC50: 1000 to 10000 nM
P2X7 receptor [3]
  IC50: > 10000 nM

## CC1CC(F)(F)CCN1Cc1noc(=O)n1Cc1c(F)cccc1Cl (stereo not drawn) [Example 226, 4-[(2-chloro-6-fluorophenyl)methyl]-3-[(4,4-difluoro-2-methylpiperidin-1-yl)methyl]-4,5-dihydro-1,2,4-oxadiazol-5-one]
P2X7 receptor [1]
  IC50: < 200 nM
P2X7 receptor [2]
  IC50: < 200 nM
P2X7 receptor [3]
  IC50: < 200 nM

## CC1CC(F)(F)CCN1Cc1noc(=O)n1Cc1ccc(F)cc1 (stereo not drawn) [Example 227, 3-[(4,4-difluoro-2-methylpiperidin-1-yl)methyl]-4-[(4-fluorophenyl)methyl]-4,5-dihydro-1,2,4-oxadiazol-5-one]
P2X7 receptor [1]
  IC50: 1000 to 10000 nM
P2X7 receptor [2]
  IC50: 200 to 1000 nM
P2X7 receptor [3]
  IC50: 1000 to 10000 nM

## O=c1onc(CN2CCOc3ccccc32)n1Cc1ccc(F)cc1 [Example 228, 3-(3,4-dihydro-2H-1,4-benzoxazin-4-ylmethyl)-4-[(4-fluorophenyl)methyl]-4,5-dihydro-1,2,4-oxadiazol-5-one]
P2X7 receptor [1]
  IC50: 200 to 1000 nM
P2X7 receptor [2]
  IC50: 200 to 1000 nM
P2X7 receptor [3]
  IC50: < 200 nM

## O=c1onc(CN2CCOc3ccccc32)n1Cc1c(F)cccc1Cl [Example 229, 4-[(2-chloro-6-fluorophenyl)methyl]-3-(3,4-dihydro-2H-1,4-benzoxazin-4-ylmethyl)-4,5-dihydro-1,2,4-oxadiazol-5-one]
P2X7 receptor [1]
  IC50: 1000 to 10000 nM
P2X7 receptor [2]
  IC50: 1000 to 10000 nM
P2X7 receptor [3]
  IC50: 1000 to 10000 nM

## O=c1onc(CN2CCOc3ccccc32)n1CC1CCCCC1 [Example 230, 4-(cyclohexylmethyl)-3-(3,4-dihydro-2H-1,4-benzoxazin-4-ylmethyl)-4,5-dihydro-1,2,4-oxadiazol-5-one]
P2X7 receptor [1]
  IC50: < 200 nM
P2X7 receptor [2]
  IC50: < 200 nM
P2X7 receptor [3]
  IC50: < 200 nM

## O=c1onc(CN2CCOc3ccccc32)n1CC1CCC(F)(F)CC1 [Example 231, 4-[(4,4-difluorocyclohexyl)methyl]-3-(3,4-dihydro-2H-1,4-benzoxazin-4-ylmethyl)-4,5-dihydro-1,2,4-oxadiazol-5-one]
P2X7 receptor [1]
  IC50: < 200 nM
P2X7 receptor [2]
  IC50: < 200 nM
P2X7 receptor [3]
  IC50: < 200 nM

## O=c1onc(CN2CCCCC2)n1Cc1ccc(F)cc1 [Example 240, 4-[(4-fluorophenyl)methyl]-3-(piperidin-1-ylmethyl)-4,5-dihydro-1,2,4-oxadiazol-5-one]
P2X7 receptor [1]
  IC50: > 10000 nM
P2X7 receptor [2]
  IC50: 1000 to 10000 nM
P2X7 receptor [3]
  IC50: > 10000 nM

## O=c1onc(CN2CCCCC2)n1Cc1c(F)cccc1Cl [Example 241, 4-[(2-chloro-6-fluorophenyl)methyl]-3-[(piperidin-1-yl)methyl]-1,2,4-oxadiazol-5(4H)-one]
P2X7 receptor [1]
  IC50: 200 to 1000 nM
P2X7 receptor [2]
  IC50: < 200 nM
P2X7 receptor [3]
  IC50: 200 to 1000 nM

## O=c1onc(CN2CCc3ccccc3C2)n1Cc1c(F)cccc1Cl [Example 244, 4-[(2-chloro-6-fluorophenyl)methyl]-3-(1,2,3,4-tetrahydroisoquinolin-2-ylmethyl)-4,5-dihydro-1,2,4-oxadiazol-5-one]
P2X7 receptor [1]
  IC50: 200 to 1000 nM
P2X7 receptor [2]
  IC50: 200 to 1000 nM
P2X7 receptor [3]
  IC50: 1000 to 10000 nM
